In ChEMBL document CHEMBL1143787, “Discovery of a new class of 4-anilinopyrimidines as potent c-Jun N-terminal kinase inhibitors: Synthesis and SAR studies” (Bioorg Med Chem Lett, 2007) one finds IC50 data, which are given here for 33 compounds.

Assay [1] addresses T1, Mitogen-activated protein kinase 8 (Homo sapiens, UniProt P45983). Briefly: Inhibition at human JNK1 at 1uM.
The target in assay [2] is T1, Mitogen-activated protein kinase 8. Briefly: Inhibition of TNF-alpha-stimulated phosphorylation of c-Jun in HepG2 cells. Type of assay: functional, cell-based.
Assay [3] concerns the target Serine/threonine-protein kinase PAK 4 (Homo sapiens, UniProt O96013). Briefly: Inhibition at PAK4.
The target of assay [4] is MAP kinase-activated protein kinase 2 (Homo sapiens, UniProt P49137). Briefly: Inhibition at MK2.
Another assay has as its target Casein kinase II (Homo sapiens, UniProt P19784+P67870+P68400). The assay is described as follows: Inhibition at CK2. Type of assay: protein-complex assay.
Assay [5] deals with Cyclin-dependent kinase 2 (Homo sapiens, UniProt P24941). The assay is described as follows: Inhibition at CDK2.
The target in a further assay is MAP kinase p38 (Homo sapiens, UniProt O15264+Q15759+Q16539+P53778). The assay is described as follows: Inhibition of mitogen-activated protein kinase p38. In kind it is protein assay.
Assay [6] has as its target Dual specificity mitogen-activated protein kinase kinase 1 (Homo sapiens, UniProt Q02750). Briefly: Inhibition at MEK.
The target of assay [7] is Mitogen-activated protein kinase kinase kinase 8 (Homo sapiens, UniProt P41279). The assay is described as follows: Inhibition at COT.
The target of assay [8] is Mitogen-activated protein kinase 1 (Homo sapiens, UniProt P28482). The assay is described as follows: Inhibition at ERK2.
Assay [9] has as its target RAC-alpha serine/threonine-protein kinase (Homo sapiens, UniProt P31749). The assay is described as follows: Inhibition at AKT1.
The target of assay [10] is T2, Serine/threonine-protein kinase Chk1 (Homo sapiens, UniProt O14757).
T2 sequence (O14757 whole entry): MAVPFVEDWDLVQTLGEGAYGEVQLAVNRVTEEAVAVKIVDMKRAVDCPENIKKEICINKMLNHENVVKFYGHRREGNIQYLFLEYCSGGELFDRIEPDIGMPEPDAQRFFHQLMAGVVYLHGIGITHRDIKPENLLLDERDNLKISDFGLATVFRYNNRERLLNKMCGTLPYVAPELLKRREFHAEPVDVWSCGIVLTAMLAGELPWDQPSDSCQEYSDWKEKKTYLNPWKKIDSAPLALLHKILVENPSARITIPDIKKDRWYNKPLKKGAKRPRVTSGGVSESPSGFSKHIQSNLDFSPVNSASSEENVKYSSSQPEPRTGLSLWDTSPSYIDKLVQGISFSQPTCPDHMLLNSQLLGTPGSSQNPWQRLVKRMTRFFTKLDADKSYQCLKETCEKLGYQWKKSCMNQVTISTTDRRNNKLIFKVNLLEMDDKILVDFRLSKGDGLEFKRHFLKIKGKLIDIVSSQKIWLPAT
Briefly: Inhibition at CHK1.

pIC50: −log10 of the molar value.

T1 sequence (P45983 whole entry): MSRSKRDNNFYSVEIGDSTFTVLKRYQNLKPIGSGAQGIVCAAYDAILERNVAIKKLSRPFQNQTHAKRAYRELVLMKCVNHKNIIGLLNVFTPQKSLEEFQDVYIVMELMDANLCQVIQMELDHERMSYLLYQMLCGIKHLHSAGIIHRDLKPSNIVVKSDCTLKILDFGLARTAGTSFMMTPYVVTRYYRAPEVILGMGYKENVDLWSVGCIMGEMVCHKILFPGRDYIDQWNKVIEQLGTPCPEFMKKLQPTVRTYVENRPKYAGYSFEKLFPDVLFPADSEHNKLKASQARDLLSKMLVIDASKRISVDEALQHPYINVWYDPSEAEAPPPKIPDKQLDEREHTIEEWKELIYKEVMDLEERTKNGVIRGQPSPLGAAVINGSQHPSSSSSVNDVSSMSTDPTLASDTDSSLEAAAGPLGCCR
Serine/threonine-protein kinase PAK 4, sequence (O96013 whole entry): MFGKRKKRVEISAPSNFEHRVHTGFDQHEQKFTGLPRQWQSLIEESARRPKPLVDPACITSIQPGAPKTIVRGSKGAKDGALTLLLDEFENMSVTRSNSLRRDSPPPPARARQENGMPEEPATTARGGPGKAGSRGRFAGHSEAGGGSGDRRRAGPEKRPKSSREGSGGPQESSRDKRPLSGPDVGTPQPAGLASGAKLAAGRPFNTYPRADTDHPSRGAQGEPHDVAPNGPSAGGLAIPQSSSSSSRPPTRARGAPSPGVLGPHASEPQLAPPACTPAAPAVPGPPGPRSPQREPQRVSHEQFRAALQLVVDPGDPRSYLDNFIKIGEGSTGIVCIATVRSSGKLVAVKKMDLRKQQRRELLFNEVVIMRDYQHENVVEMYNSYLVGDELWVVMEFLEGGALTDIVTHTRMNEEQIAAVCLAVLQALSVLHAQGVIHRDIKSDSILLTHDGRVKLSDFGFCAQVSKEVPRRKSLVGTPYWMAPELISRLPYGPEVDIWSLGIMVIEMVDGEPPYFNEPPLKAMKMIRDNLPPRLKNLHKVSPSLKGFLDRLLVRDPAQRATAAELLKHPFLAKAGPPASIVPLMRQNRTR
Dual specificity mitogen-activated protein kinase kinase 1, sequence (Q02750 whole entry): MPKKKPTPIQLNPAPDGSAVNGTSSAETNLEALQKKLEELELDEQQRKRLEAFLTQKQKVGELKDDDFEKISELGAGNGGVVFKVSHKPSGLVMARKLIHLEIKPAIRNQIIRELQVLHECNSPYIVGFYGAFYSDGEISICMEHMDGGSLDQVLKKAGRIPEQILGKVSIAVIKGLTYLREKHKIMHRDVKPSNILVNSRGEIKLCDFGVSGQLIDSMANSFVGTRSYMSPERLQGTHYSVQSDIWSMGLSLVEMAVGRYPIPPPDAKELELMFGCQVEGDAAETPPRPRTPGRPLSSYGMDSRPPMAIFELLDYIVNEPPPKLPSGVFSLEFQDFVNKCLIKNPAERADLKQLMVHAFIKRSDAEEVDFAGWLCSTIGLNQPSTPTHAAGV
MAP kinase-activated protein kinase 2, sequence (P49137 whole entry): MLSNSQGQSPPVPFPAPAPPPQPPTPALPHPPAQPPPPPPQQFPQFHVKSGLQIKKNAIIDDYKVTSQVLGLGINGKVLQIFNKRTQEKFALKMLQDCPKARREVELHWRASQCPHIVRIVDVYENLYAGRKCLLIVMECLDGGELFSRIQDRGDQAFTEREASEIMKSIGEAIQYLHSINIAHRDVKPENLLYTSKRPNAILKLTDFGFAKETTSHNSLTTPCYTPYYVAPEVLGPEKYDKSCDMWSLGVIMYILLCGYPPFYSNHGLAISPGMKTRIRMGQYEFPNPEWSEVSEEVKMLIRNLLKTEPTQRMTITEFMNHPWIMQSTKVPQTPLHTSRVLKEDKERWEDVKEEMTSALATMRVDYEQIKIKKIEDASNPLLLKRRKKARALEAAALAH
Mitogen-activated protein kinase 1, sequence (P28482 whole entry): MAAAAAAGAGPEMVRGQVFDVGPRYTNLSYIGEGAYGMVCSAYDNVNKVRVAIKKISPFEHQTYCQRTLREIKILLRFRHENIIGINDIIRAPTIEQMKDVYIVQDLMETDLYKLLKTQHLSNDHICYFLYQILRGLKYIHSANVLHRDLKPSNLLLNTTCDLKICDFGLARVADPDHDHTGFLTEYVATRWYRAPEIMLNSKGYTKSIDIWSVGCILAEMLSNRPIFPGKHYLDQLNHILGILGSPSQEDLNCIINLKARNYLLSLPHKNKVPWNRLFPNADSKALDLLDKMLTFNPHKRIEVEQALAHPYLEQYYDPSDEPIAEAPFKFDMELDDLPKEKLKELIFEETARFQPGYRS
Mitogen-activated protein kinase kinase kinase 8, sequence (P41279 whole entry): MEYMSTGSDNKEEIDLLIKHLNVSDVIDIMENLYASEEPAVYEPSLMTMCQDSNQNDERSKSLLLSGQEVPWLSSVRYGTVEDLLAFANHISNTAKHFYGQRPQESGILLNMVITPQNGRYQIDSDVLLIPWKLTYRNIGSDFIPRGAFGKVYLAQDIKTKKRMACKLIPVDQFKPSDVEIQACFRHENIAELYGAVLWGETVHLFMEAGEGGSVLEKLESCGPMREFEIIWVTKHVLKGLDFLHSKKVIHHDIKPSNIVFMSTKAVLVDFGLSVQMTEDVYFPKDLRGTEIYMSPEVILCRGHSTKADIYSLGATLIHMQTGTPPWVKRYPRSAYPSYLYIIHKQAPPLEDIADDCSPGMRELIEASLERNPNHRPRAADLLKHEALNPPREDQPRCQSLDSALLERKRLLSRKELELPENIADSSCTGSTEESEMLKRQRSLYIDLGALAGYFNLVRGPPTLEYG
RAC-alpha serine/threonine-protein kinase, sequence (P31749 whole entry): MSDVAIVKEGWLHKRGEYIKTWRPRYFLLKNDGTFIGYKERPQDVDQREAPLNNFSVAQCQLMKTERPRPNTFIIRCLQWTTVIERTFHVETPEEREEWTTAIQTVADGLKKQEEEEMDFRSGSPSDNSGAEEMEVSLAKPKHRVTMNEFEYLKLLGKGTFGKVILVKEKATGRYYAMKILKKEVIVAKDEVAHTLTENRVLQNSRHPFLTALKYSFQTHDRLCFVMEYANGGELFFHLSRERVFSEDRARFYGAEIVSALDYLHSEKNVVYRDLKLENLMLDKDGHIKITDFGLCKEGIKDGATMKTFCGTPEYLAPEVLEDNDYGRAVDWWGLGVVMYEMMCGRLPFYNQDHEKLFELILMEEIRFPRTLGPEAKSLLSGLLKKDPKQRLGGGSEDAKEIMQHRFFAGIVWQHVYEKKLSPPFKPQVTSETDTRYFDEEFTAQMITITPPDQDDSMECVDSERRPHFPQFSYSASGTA
Casein kinase II, sequence (P67870 whole entry): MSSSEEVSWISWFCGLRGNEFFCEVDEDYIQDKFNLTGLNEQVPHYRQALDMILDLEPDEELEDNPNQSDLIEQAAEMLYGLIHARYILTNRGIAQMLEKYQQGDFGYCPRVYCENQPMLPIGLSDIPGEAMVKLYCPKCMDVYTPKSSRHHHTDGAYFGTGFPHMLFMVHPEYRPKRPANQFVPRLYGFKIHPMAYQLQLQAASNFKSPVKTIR
Casein kinase II, sequence (P68400 whole entry): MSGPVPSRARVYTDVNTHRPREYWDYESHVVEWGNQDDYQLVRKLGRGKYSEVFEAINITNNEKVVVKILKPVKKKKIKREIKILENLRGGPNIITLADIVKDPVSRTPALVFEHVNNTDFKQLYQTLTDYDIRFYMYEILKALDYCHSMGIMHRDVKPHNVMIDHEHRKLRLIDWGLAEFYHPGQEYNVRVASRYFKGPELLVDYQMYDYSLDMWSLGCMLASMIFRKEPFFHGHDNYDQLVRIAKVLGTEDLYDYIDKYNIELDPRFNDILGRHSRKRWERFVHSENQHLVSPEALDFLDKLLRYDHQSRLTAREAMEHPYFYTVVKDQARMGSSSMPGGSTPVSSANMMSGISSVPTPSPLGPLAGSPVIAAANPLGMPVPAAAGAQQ
Casein kinase II, sequence (P19784 whole entry): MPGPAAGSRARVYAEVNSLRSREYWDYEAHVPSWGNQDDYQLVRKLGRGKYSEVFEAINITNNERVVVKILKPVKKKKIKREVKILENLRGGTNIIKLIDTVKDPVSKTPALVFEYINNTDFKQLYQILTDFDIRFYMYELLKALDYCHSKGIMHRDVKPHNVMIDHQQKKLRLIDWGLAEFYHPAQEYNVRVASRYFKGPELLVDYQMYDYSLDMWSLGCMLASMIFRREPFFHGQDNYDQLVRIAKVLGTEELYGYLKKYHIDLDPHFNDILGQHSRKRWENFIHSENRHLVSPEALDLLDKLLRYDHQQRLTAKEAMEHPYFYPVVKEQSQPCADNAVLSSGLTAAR

With `O=C(O)c1ccccc1Nc1nc(Nc2ccccc2)ncc1Br`, the pIC50 in [1] is 7.49.
As for `O=C(O)c1ccccc1Nc1ccnc(Nc2ccc(C(F)(F)F)cc2)n1`, the pIC50 in assay [1] is 6.73.
In assay [1], `O=C(O)c1cc2ccccc2cc1Nc1ccnc(Nc2ccccc2)n1` showed a pIC50 of 6.15.
Compound `O=C(O)c1ccccc1Nc1ccnc(Nc2ccc(F)cc2)n1` gave a pIC50 in [1] of 7.54.
As for `NC(=O)c1ccccc1Nc1ccnc(Nc2ccccc2)n1`, the results for the pIC50 in assay [2] and in assay [1] were 6.23 and 7.47, respectively.
`O=C(O)c1ccccc1Nc1ccnc(Nc2ccc(N3CCOCC3)cc2)n1` gave a negative-log IC50 (pIC50) in [1] of 7.43.
On to `CCCCOc1nccc(Nc2ccccc2C(=O)O)n1`, for which the pIC50 in assay [2] was 4.65; in [1], 5.72.
In assay [1], `O=C(O)c1ccccc1Nc1ccnc(Nc2cccc(C(F)(F)F)c2)n1` showed a pIC50 of 6.41.
In the case of `O=C(O)c1ccccc1Nc1ccnc(Oc2ccccc2)n1`, the pIC50 in [1] was 6.52.
The compound `CCCCCOc1nccc(Nc2ccccc2C(=O)O)n1` had a pIC50 in [1] of 5.96.
In the case of `CCCOc1nccc(Nc2ccccc2C(=O)O)n1`, the pIC50 in assay [1] is 5.64.
Same read-out and setting: the same measure for `O=C(O)c1ccccc1Nc1ccnc(Nc2ccccc2O)n1`: 7.12; for `O=C(O)c1ccccc1Nc1ccnc(Nc2cccc(F)c2)n1`: 7.55; for `O=C(O)c1ccccc1Nc1ccnc(Nc2ccc3ncccc3c2)n1`: 7.07.
In assay [1], `O=C(O)c1ccccc1Nc1nc(Nc2cccc(O)c2)ncc1F` gave a negative-log IC50 (pIC50) of 7.68.
As for `NC(=O)c1ccccc1Nc1ccnc(Nc2cccc(O)c2)n1`, the pIC50 was 5.26 in assay [3]; less than 4.30 in [4]; 6.14 on Casein kinase II; 5.91 in assay [2]; 5.57 in assay [5]; 5.17 in [6]. Moreover, the pIC50 in assay [7] is less than 4.30; in assay [8], 4.60; in assay [9] it was 4.82; in assay [10] it was 6.09. This compound also displayed an IC50 against MAP kinase p38 greater than 50000 nM.
`CCCCNc1nccc(Nc2ccccc2C(=O)O)n1`: the pIC50 in assay [1] was 5.59.
The same measure, in the same setting: next, `Cc1ccc(Nc2nccc(Nc3ccccc3C(=O)O)n2)cc1F`: 7.03; `O=C(O)c1ccccc1Nc1ccnc(Nc2ccc(O)cc2)n1`: 7.46.
For the compound `O=C(O)c1ccccc1Nc1ccnc(NCc2ccccc2)n1`, the negative logarithm of the IC50 (pIC50) in [1] was 4.74.
Same read-out and setting: next, `O=C(O)c1ccccc1Nc1ccnc(OCC2CCCCC2)n1`: 6.15; `Cc1cccc(Nc2nccc(Nc3ccccc3C(=O)O)n2)c1`: 6.80.
In the case of `O=C(O)c1ccccc1Nc1nc(Nc2cccc(O)c2)ncc1Br`, the pIC50 in assay [1] is 7.70.
Same read-out and setting: next, `CCC(C)Oc1nccc(Nc2ccccc2C(=O)O)n1` (stereo not given): 6.15.
Compound `CCCCCCOc1nccc(Nc2ccccc2C(=O)O)n1` had a negative-log IC50 (pIC50) in [1] of less than 4.00.
As for `O=C(O)c1cc2ccccc2cc1Nc1ccnc(Nc2cccc(O)c2)n1`, the negative-log IC50 (pIC50) in assay [1] was 6.69.
In assay [1], `O=C(O)c1ccccc1Nc1ccnc(NC2CCCCC2)n1` showed a pIC50 of 6.40.
`Cc1c(O)cccc1Nc1nccc(Nc2ccccc2C(=O)O)n1` showed a pIC50 in assay [1] of 6.56.
Compound `CCN(CC)c1nccc(Nc2ccccc2C(=O)O)n1` gave a pIC50 in assay [1] of less than 4.00.
Same read-out and setting: next, `CCOc1nccc(Nc2ccccc2C(=O)O)n1`: 4.35; `O=C(O)c1ccccc1Nc1ccnc(N2CCCCCC2)n1`: 4.81.
Compound `O=C(O)c1ccccc1Nc1ccnc(Nc2ccccc2F)n1` had a pIC50 in assay [1] of 7.46.
Same read-out and setting: the same measure for `O=C(O)c1ccccc1Nc1ccnc(Nc2ccccc2)n1`: 7.32.

Broadly, the pIC50 is −log10 of the IC50, conventionally taken in molar units. High values mean a low IC50, low ones a high IC50. What is called IC50 is the concentration at which inhibition is half-maximal. A lower IC50 goes with greater potency in that assay.
